Patent US12371668B2, “Methods for tissue generation” (priority 2018, dated 2025)
“Also recorded” adds a separate entry of the source.

Legend:
[1] = system: ventricular tissues derived from BJ1D iPSC-CM; assay: Intracellular action potential recordings in ventricular Biowires; format: cell-based, human; settings: for responses on action potentials: ventricular Biowires, FIGS. 12E-12N
Protocol: Tissues were perfused with 35-37° C. […] They were paced at twice the ET. The action potential was recorded with high impedance microelectrodes (60-90 MΩ) filled with 3M KCl, connected to an Axopatch 200B amplifier (Axon Instruments). Recordings were performed in current clamp mode at 2 kHz and signals were analyzed using the Clampfit 10 Data Analysis Module of the pCLAMP™ 10 Electrophysiology Data Acquisition & Analysis Software (Axon Instruments). The movement of the tissue was minimized by perfusing with 10 μM blebbistatin (Toronto Research Chemicals) for 20 min. The effect of various compounds on the action potential was assessed by preparing an appropriate dilution of the compound in Krebs's Solution or DMEM.

[2] = system: atrial tissues derived from Hes3 hESC-CM; assay: Intracellular action potential recordings in atrial Biowires; format: cell-based, human
Protocol: Tissues were perfused with 35-37° C. Kreb's Solution (118 mM NaCl, 4.2 mM KCl, 1.2 mM KH2PO4, 1.2 mM MgSO4, 1.8 mM CaCl2, 23 mM NaHCO3, 2 mM Na-pyruvate and 20 mM glucose, equilibrated with 95% 02 and 5% CO2, pH 7.4) or DMEM medium. They were paced at twice the ET. The action potential was recorded with high impedance microelectrodes (60-90 MΩ) filled with 3M KCl, connected to an Axopatch 200B amplifier (Axon Instruments). Recordings were performed in current clamp mode at 2 kHz and signals were analyzed using the Clampfit 10 Data Analysis Module of the pCLAMP™ 10 Electrophysiology Data Acquisition & Analysis Software (Axon Instruments). The movement of the tissue was minimized by perfusing with 10 μM blebbistatin (Toronto Research Chemicals) for 20 min. The effect of various compounds on the action potential was assessed by preparing an appropriate dilution of the compound in Krebs's Solution or DMEM.

[3] = system: ventricular Biowires created from BJ1D iPSCs and HES3 ESCs; assay: Dynamic force recordings of ventricular Biowires under stimulation; format: cell-based, human; settings: FIG. 2G
Protocol: Blue channel image sequences were analyzed using a custom MatLab code that traced the maximum deflection of the POMaC wire. Average tissue width (diameter) and width of the tissue on the polymer wire (Tw) were measured from still frames of the 4× bright field video of the tissue in the relaxed position (FIGS. 8C-8D). Total (at peak contraction) and passive (at rest) POMaC wire deflections were converted to force measurements (μN) using the force calibration curves described in the previous section. The final readouts for the total and passive tension of tissue were then interpolated according to the Tw and custom tip sizes. The active force was calculated as the difference between the total and passive tension (FIG. 2C). The custom MatLab code was used to calculate the passive tension, active force, contraction and relaxation duration, and upstroke and relaxation velocity. To investigate the contractile effects of various compounds on the tissues, a custom testing chamber was fabricated in a 6-well plate modified with an extraction/injection port connected to a 5 mL syringe, a pair of carbon electrodes (set 1 cm apart) with platinum wire lead attachments and a custom 3D-printed holder for a polystyrene chip with a single microwell. Prior to testing, the tissue was transferred to the custom testing chamber and placed in the environmental chamber on the microscope stage (37° C., 5% CO2), where it was allowed to equilibrate for 30 min in the presence of electrical field stimulation (1 Hz, at ET). A bright field video of the tissue was taken before testing to obtain all the necessary measurements for the force calculation. For testing, the voltage was increased to 10% above the ET, and videos were taken of one polymer wire (10× objective). Prior to the test compound injection, media were extracted and injected through the port twice at 10 min intervals to pre-condition the tissue to the testing process. Compounds were diluted in media at concentrations 1000-fold higher than the desired final concentration. For compound testing, ⅓^rd of the media was extracted from the chamber, the compound was added to the extracted media and then injected back into the testing chamber. After 10-15 min, videos in the blue channel were recorded. The procedure was repeated for sequential drug dosages. The videos were analyzed using the custom MatLab software, as indicated for the weekly FFR assessments.

[4] = Long-term absorption test, Biowire chips; format: physicochemical
Protocol: (§1) For the long-term absorption test, polystyrene strips containing microwells and POMaC wires, with and without the adhesive, were cut into chips (9 mm×9 mm×1 mm) containing a single microwell. Chips of the same geometry were also made using PDMS. The polystyrene and PDMS chips were incubated in 1 mL Rhodamine B (1 μM; Sigma-Aldrich) in a 24 well-plate at 37° C. for up to 1 wk. Tissue culture treated 24 well-plates were incubated with the dye in the absence of any chips as a control. At 6 h, 24 h, 48 h, and 1 wk, 100 μL of the dye solution was transferred to a 96-well plate and the fluorescence was read using a SpectraMax i3 plate reader (Molecular Devices; λex=540 nm, λem=625 nm), (n=3). Additionally, fluorescent images of the chips were taken in the absence of treatment, after 1 wk of dye incubation, and after 2 h of washing following 1 wk of dye incubation.

[5] = Long-term absorption test, PDMS chips; format: physicochemical; settings: 1 wk incubation then washout for 2 hours
Protocol: as §1

[6] = system: ventricular portions of heteropolar Biowires (Hes3 hESC); assay: Optical mapping of impulse propagation in atrioventricular Biowires, ventricular region; format: cell-based, human; settings: 1 μM, listed as Ranolazine
Protocol: (§2) To generate atrioventricular tissues, dissociated atrial cardiac cells and cardiac fibroblasts were mixed in a 10:1.5 cell number ratio. Dissociated ventricular cells and cardiac fibroblasts were mixed in a 10:1.5 cell number ratio. The mixed cells were pelleted and resuspended at a concentration of 5.75×10^7 cells/mL in collagen hydrogel. When seeding, cell-hydrogel mixture containing atrial CMs (1 μL) were seeded on one side of the Biowire II well first, followed by mixture containing ventricular CMs (1 μL) seeded on the other side. After seeding, tissues were cultured for 7 days to allow for remodeling and compaction around the POMaC wires.
(§3) For atrioventricular preparations, electrical stimulation started at 2 Hz on day 7 and the protocol of 1 Hz weekly step-up was used until the frequency reached 6 Hz. If average MCR exceeded 4 Hz after one week of 2 Hz stimulation, or exceeded 5 Hz after one week of 3 Hz stimulation, stimulation frequency could be changed directly from 2 Hz to 4 Hz or 3 Hz to 5 Hz to accelerate the process. […]
(§4) Tissues were perfused with 5 μM voltage sensitive dye, Di-4-ANEPPS (Invitrogen), in Kreb's Solution at 35-37° C. for 20 min. Dye fluorescence was recorded on an MVX-10 Olympus fluorescence microscope (Olympus Corporation) equipped with a charged coupled device (CCD) (Cascade 128, Photometrics). […]

[7] = system: atrial region of heteropolar Biowires (Hes3 hESC); assay: Optical mapping of impulse propagation in atrioventricular Biowires, atrial region; format: cell-based, human; settings: 1 μM
Protocol: as §2, §3, §4

[8] = system: atrial end of heteropolar atrio-ventricular Biowires (Hes3 hESC); assay: Calcium transients in atrioventricular Biowires, atrial end; format: cell-based, human
Protocol: as §2, with “wires. […]” for “wires.”
To investigate the relative changes of intracellular calcium concentration, tissues were incubated with the calcium dye Fluo-4 NW (Thermo Fisher) for 30 min at 37° C. prior to testing. To obtain both calcium transients and contractility readouts consecutively and synchronously, the testing process was performed using both green light channel (λex=490 nm, λem=525 nm) and/or blue channel at 10× or 4× magnification. […] The ratio of peak tissue fluorescence intensity to baseline intensity, dF/F0 was calculated to determine the relative changes in intracellular calcium in the presence of the compound. For the consecutive force and calcium transient readouts, contractile measurements were extracted from the blue channel as described before. […]

[9] = system: atrial tissue derived from Hes3 hESC-CM; assay: Force and calcium transient measurement in atrial Biowires; format: cell-based, human; settings: atrial preparations, increasing concentrations
Protocol: To investigate the contractile effects of various compounds on the tissues, a custom testing chamber was fabricated in a 6-well plate modified with an extraction/injection port connected to a 5 mL syringe, a pair of carbon electrodes (set 1 cm apart) with platinum wire lead attachments and a custom 3D-printed holder for a polystyrene chip with a single microwell. Prior to testing, the tissue was transferred to the custom testing chamber and placed in the environmental chamber on the microscope stage (37° C., 5% CO2), where it was allowed to equilibrate for 30 min in the presence of electrical field stimulation (1 Hz, at ET). […] After 10-15 min, videos in the blue channel were recorded. […] The videos were analyzed using the custom MatLab software, as indicated for the weekly FFR assessments.
(§5) To investigate the relative changes of intracellular calcium concentration, tissues were incubated with the calcium dye Fluo-4 NW (Thermo Fisher) for 30 min at 37° C. prior to testing. […] The ratio of peak tissue fluorescence intensity to baseline intensity, dF/F0 was calculated to determine the relative changes in intracellular calcium in the presence of the compound. For the consecutive force and calcium transient readouts, contractile measurements were extracted from the blue channel as described before. […]

[10] = system: ventricular tissue derived from BJ1D iPSC-CM; assay: Force and calcium transient measurement in ventricular Biowires; format: cell-based, human
Protocol: To investigate the contractile effects of various compounds on the tissues, a custom testing chamber was fabricated in a 6-well plate modified with an extraction/injection port connected to a 5 mL syringe, a pair of carbon electrodes (set 1 cm apart) with platinum wire lead attachments and a custom 3D-printed holder for a polystyrene chip with a single microwell. Prior to testing, the tissue was transferred to the custom testing chamber and placed in the environmental chamber on the microscope stage (37° C., 5% CO2), where it was allowed to equilibrate for 30 min in the presence of electrical field stimulation (1 Hz, at ET). A bright field video of the tissue was taken before testing to obtain all the necessary measurements for the force calculation. For testing, the voltage was increased to 10% above the ET, and videos were taken of one polymer wire (10× objective). Prior to the test compound injection, media were extracted and injected through the port twice at 10 min intervals to pre-condition the tissue to the testing process. […] For compound testing, ⅓^rd of the media was extracted from the chamber, the compound was added to the extracted media and then injected back into the testing chamber. After 10-15 min, videos in the blue channel were recorded. The procedure was repeated for sequential drug dosages. The videos were analyzed using the custom MatLab software, as indicated for the weekly FFR assessments.
as §5, with “before. For the synchronous readouts, the contractile measurements were extracted from the green channel videos using modified version of the ImageJ SpotTracker plugin.” for “before.”

[11] = atrial Biowires, low doses (25 μM)

SMILES: Nc1ccncc1 [4AP, 4-aminopyridine]
- APD ([1]; ventricular tissues, higher doses): did prolong APD
- action potential amplitudes and APD30 ([1]; ventricular tissues, low doses (25 μM)): without measurable effects
- APD30 [2, 11]: prolonged
- action potential amplitudes [2, 11]: increased
- AP duration ([2]; atrial tissues, very low concentrations (<50 μM)): prolonged

SMILES: Cc1cccc(CCN2CCC(C(=O)c3ccc(NS(C)(=O)=O)cc3)CC2)n1 [E-4031]
- changes in the active forces and beat patterns [3]: promotes spontaneous irregular beating patterns consistent with arrhythmias

SMILES: CCN(CC)c1ccc2c(-c3ccccc3C(=O)O)c3ccc(=[N+](CC)CC)cc-3oc2c1.[Cl-] [Rhodamine B]
- fluorescence levels in solution versus PDMS chips ([4]; 1 μM dye, 37° C., incubation 24 hours and longer): remained higher than in PDMS chips
- fluorescence in chip after washout ([4]; 1 wk incubation then washout for 2 hours): undetectable
- levels versus tissue plastic well controls ([4]; after 6 hours): not significantly different
- fluorescence in chip after washout [5]: remained widespread

SMILES: C[N+](C)(C)CCOC(N)=O [carbachol]
- APDs (action potential durations) ([1]; ventricular tissues): without affecting these parameters
- APDs (action potential durations) ([2]; atrial Biowires): abbreviated APDs; also recorded: shortened atrial APDs only

SMILES: COc1ccc([C@@H]2Sc3ccccc3N(CCN(C)C)C(=O)[C@@H]2OC(C)=O)cc1 [diltiazem]
- changes in the active forces and beat patterns [3]: produces negative inotropic effects

SMILES: CN(CCOc1ccc(NS(C)(=O)=O)cc1)CCc1ccc(NS(C)(=O)=O)cc1 [dofetilide]
- responses on action potentials [1]: predictable responses

SMILES: CC(C)NCC(O)c1ccc(O)c(O)c1 (centres unmarked) [isoproterenol]
- changes in the active forces and beat patterns [3]: increases contractility

SMILES: CCN(CC)CC(=O)Nc1c(C)cccc1C [lidocaine]
- changes in the active forces and beat patterns [3]: inhibits tissue electrical excitability

SMILES: Cc1[nH]c(=O)c(C#N)cc1-c1ccncc1 [milrinone]
- changes in the active forces and beat patterns [3]: enhances contractility

SMILES: COc1ccccc1OCC(O)CN1CCN(CC(=O)Nc2c(C)cccc2C)CC1 (centres unmarked) [ranolazine]
- conduction velocity [6]: without affecting
- conduction velocity [7]: significantly slowed down
- conduction velocity ([7]; listed as Ranolazine): decreased conduction velocity

SMILES: NCCc1c[nH]c2ccc(O)cc12 [serotonin]
- Ca2+ transients [8]: increased; also recorded: positive inotropic effect

SMILES: C/C=C(/C)C(=O)O[C@H]1C(C)=C2[C@H]([C@@H]1OC(=O)CCCCCCC)[C@@](C)(OC(C)=O)C[C@H](OC(=O)CCC)[C@@]1(O)[C@H]2OC(=O)[C@@]1(C)O [thapsigargin]
- force and Ca′ transient amplitudes [9]: dose-dependently decreased
- potency in ventricular versus atrial preparations ([10]; decrease of force and Ca′ transient amplitudes): higher potency in ventricle
- time-to-peak and decay rates of both force and Ca2+ ([10]; ventricular Biowires, low pacing rates): prolonged
- force and Ca′ transient amplitudes ([10]; ventricular preparations, increasing concentrations): dose-dependently decreased

SMILES: COc1ccc(CCN(C)CCCC(C#N)(c2ccc(OC)c(OC)c2)C(C)C)cc1OC (centres unmarked) [verapamil]
- responses on action potentials [1]: predictable responses
